This is an account of results in patent publication US20220282271A1, “HERBICIDE RESISTANT PLANTS AND METHODS OF MAKING AND USING” (OFFICE OF INNOVATION ADVANCEMENT AND COMMERCIALIZATION, priority 2019, published 2022).

What all share (type): in vivo
Holding throughout (details): 1.0 lb ai/a, applied approximately 3 weeks after emergence, relative to non-treated

One assay concerns Ipomoea coccinea. As to the kind of experiment: Weed control screen: red morningglory. The method, then: (§1) Herbicides were applied at a spray volume of 280 L/ha with no adjuvant added to any herbicide mixture. Weed control was rated on a 0 to 100 percent phytoxicity scale with 0 being no plant injury/phytotoxicity and 100 being complete plant dessication. Twenty-one weeds were evaluated for response to herbicides (Table 3). The weeds selected were a mixture of weeds common in agronomic and horticultural crops. Herbicide was applied to all species approximately 3 weeks after emergence. Plant phytotoxicity rated as percent control relative to the non-treated.

A further assay relates to Eleusine indica. Kind of assay: Weed control screen: goosegrass. The method, then: as §1
The test system of the next assay is Solanum carolinense. As to the kind of experiment: Weed control screen: Carolina horsenettle. The method, then:
as §1

Another assay deals with Senna obtusifolia. As to the kind of experiment: Weed control screen: sicklepod. The method, then:
as §1

A further assay deals with Conyza candensis. As to the kind of experiment: Weed control screen: glyphosate-resistant horseweed. The method, then: as §1
The next assay relates to Ipomoea quamoclit. As to the kind of experiment: Weed control screen: cypressvine morningglory. The method, then: as §1
Another assay has as its system Cyperus iria. As to the kind of experiment: Weed control screen: rice flatsedge. The method, then:
as §1

A further assay has as its system Ipomoea hederacea. Kind of assay: Weed control screen: entireleaf morningglory. The method, then:
as §1

A further assay concerns Kyllinga squamulata. Kind of assay: Weed control screen: cock's comb kyllinga. The method, then: as §1
The next assay relates to Albizia julibrissin. As to the kind of experiment: Weed control screen: silktree. The method, then:
as §1

For the next assay, the system named is Abutilon theophrasti. Kind of assay: Weed control screen: velvetleaf. The method, then:
as §1

The subject of a further assay is Jaquemontia tamnifolia. As to the kind of experiment: Weed control screen: smallflower morningglory. The method, then:
as §1

A further assay has as its system Ipomoea lacunosa. As to the kind of experiment: Weed control screen: pitted morningglory. The method, then:
as §1

A further assay relates to Physalis angulata. As to the kind of experiment: Weed control screen: cutleaf groundcherry. The method, then:
as §1

The test system of a further assay is Crotalaria spectabilis. Kind of assay: Weed control screen: showy crotalaria. The method, then:
as §1

The next assay relates to Amaranthus palmeri. As to the kind of experiment: Weed control screen: glyphosate resistant palmer amaranth. The method, then:
as §1

The test system of another assay is Sida spinosa. As to the kind of experiment: Weed control screen: prickly sida. The method, then:
as §1

In the next assay the test system is Sorghum halapense. Kind of assay: Weed control screen: johnsongrass. The method, then:
as §1

Another assay has as its system Murdannia nudiflora. As to the kind of experiment: Weed control screen: doveweed. The method, then:
as §1

The next assay has as its system Sesbania exaltata. As to the kind of experiment: Weed control screen: hemp sesbania. The method, then: as §1
Another assay concerns Amaranthus hybridus. As to the kind of experiment: Weed control screen: smooth pigweed. The method, then:
as §1

Structures are written as SMILES.

Turning to `CP(=O)(O)CCC(N)C(=O)O` (stereo not shown) [Glufosinate, glufosinate], the “Percent control (0 to 100)” value in the assay on Ipomoea coccinea, in the assay on Eleusine indica, in the assay on Solanum carolinense, in the assay with Senna obtusifolia, with Conyza candensis and with Ipomoea quamoclit was 100% each time. Besides, the “Percent control (0 to 100)” value with Cyperus iria was 60%; in the assay on Ipomoea hederacea, 100%; in the assay on Kyllinga squamulata, 30%; in the assay with Albizia julibrissin, 100%; in the assay on Abutilon theophrasti it was 100%; in the assay with Jaquemontia tamnifolia it was 100%. Moreover, the “Percent control (0 to 100)” value in the assay on Ipomoea lacunosa, in the assay with Physalis angulata, in the assay on Crotalaria spectabilis, in the assay with Amaranthus palmeri, in the assay with Sida spinosa and in the assay with Sorghum halapense was 100% throughout. The “Percent control (0 to 100)” value with Murdannia nudiflora, with Sesbania exaltata and in the assay with Amaranthus hybridus was 100% throughout.
With `O=C(O)CNCP(=O)(O)O` [Glyphosate, glyphosate], the “Percent control (0 to 100)” value with Ipomoea coccinea was 50%; with Eleusine indica it was 90%; in the assay with Solanum carolinense, 50%; in the assay on Senna obtusifolia, 70%; with Conyza candensis, 0%; with Ipomoea hederacea, 60%. Also, the “Percent control (0 to 100)” value in the assay with Kyllinga squamulata is 95%; in the assay on Albizia julibrissin it was 25%; in the assay with Abutilon theophrasti, 100%; in the assay on Jaquemontia tamnifolia it was 40%; with Ipomoea lacunosa, 60%; in the assay with Physalis angulata it was 99%. Besides, the “Percent control (0 to 100)” value is recorded as 60% in the assay on Crotalaria spectabilis; 35% in the assay on Amaranthus palmeri; 60% with Sida spinosa; 100% in the assay with Sorghum halapense; 80% in the assay with Murdannia nudiflora; 75% in the assay on Sesbania exaltata. In addition, the “Percent control (0 to 100)” value in the assay with Amaranthus hybridus is reported as 90%.
